Read-outs that look alike come from different tables or passages of the source.
Key:
[1] = literature; cited from earlier work
[2] = literature; cited from earlier work; remark: listed apart in the source
[3] = literature; cited from earlier work; remark: listed apart in the source
[4] = cited from earlier work; for r1: based on references
[5] = standard curve, well-characterized chelators; cited from earlier work
[6] = In vitro r1 and r2 proton relaxivity; assay type: physicochemical
Method: Determination of r1 and r2 Relaxivity Values, Relaxation times, T1 and T2, were determined at 1.5, 3, 9.4 Tesla using a Siemens whole-body MR system (1.5, 3T) or a Bruker MRI scanner (9.4T). T1 was determined using inversion recovery and T2 using a multi-echo Carr-Purcell-Meiboom-Gill (CPMG) sequence. The contrast agent samples (200 μl) with different concentrations were placed in eppendorf tubes. The tubes were placed on a tube rack, which was placed in MRI scanners for the measurement of relaxation times r1 and r2 were calculated based on r1(mM^−1 S^−1)=(1/T1s−1/T1c)/C and r2(mM^−1 S^−1)=(1/T2s−1/T2c)/C, where T1s and T2s are relaxation times with contrast agent and T1c and T2c are relaxation times without contrast agent. C is the concentration of contrast agent in mM (the measured Gd^3+ concentrations by ICP-MS). […]

CD-1 mice = experiment: Mouse MR imaging; assay type: in vivo; details: 3T or 9.4T
Method: (§1) Mouse MR Imaging. Care of experimental animals was in accordance with institutional guidelines. CD-1 mice (25-30 g, four mice were imaged) were anesthetized with an isoflurane gas mixture. The anesthetized animal was positioned and stabilized with soft-supporting material (e.g., foam) in the scanner in the coil cradle and was kept warm during the MRI scan. The mice were scanned prior to the administration of any contrast agent (pre-contrast). Approximately 50 μl of Gd-CA1.CD2 (~1.2 mM) or Gd-DTPA (~300 mM) were injected into the animal via the tail vein. MR images were collected at different times (indicated). For T1 weighted imaging at 3T, spin echo sequence with TE/TR=15 ms/500 ms was employed. Rectangular Field of View (FOV) at 100/40 mm, an acquisition matrix of 196^2 and 1.1 mm slice thickness without gap were used. Images were collected from both transverse and coronal sections. The in-plane resolution of images was less than 0.5 mm after they were reconstructed to the matrix of 196^2. For T2 weighted imaging at 9.4T, MR images were recorded using a multi-echo Carr-Purcell-Meiboom-Gill (CPMG) sequence. The data were collected and processed by Dicomworks software. The MR signal intensity in several organs was ascertained by the average intensity in ROIs or points within the organs. Signal intensity for each organ was normalized to that of the leg muscle.
as §1, with “Care” for “Mouse MR Imaging. Care”, “(e.g.” for “(e.g.,”

[7] = In vitro r1 and r2 proton relaxivity; assay type: physicochemical; details: 3.0 T; 50 μM designed agents, 100 μM Gd-DTPA
[8] = used for the Gd^3+ buffer system; read-out: Gd^3+-binding affinity; cited from earlier work
[9] = Water coordination number by terbium life time luminescence; assay type: physicochemical
Method: Measurement of Water Coordination Number by Terbium Life Time Luminescence. The number of water ligands coordinated to Gd^3+-CA1.CD2 complex was determined by measuring Tb^3+ luminescence decay in H2O or D2O. Tb^3+ excited state lifetime was measured using a fluorescence spectrophotometer (Photon Technology International, Inc.) with a 10 mm path length quartz cell at 22° ° C. Following excitation at 265 nm with a XenoFlash (Photon Technology International, Inc.), Tb^3+ emission was monitored at 545 nm in a time series experiment in both H2O and D2O systems. Luminescence decay lifetime was obtained by fitting the acquired data with a mono-exponential decay function. H2O in CA1.CD2 solution was replaced with D2O by lypholization and re-dissolved in D2O at least three times. A standard curve correlating the Δkobs with water number under our experimental conditions was established by using well-characterized chelators, such as EDTA (q=3), DTPA (q=1), NTA (q=5), and Aquo Tb^3+ (q=9) solution with R^2=0.997.^26,27 Water number coordinated to Tb^3+-CA1.CD2 complex was then obtained by fitting the acquired Δkobs value to the standard curve.
The numbers of water ligands coordinated to Gd^3+-CA1.CD2 and variants complex were determined by measuring Tb^3+ luminescence decay in H2O or D2O (Yang et al., 2008). Tb^3+ excited state lifetime was measured using a fluorescence spectrophotometer (Photon Technology International, Inc.) with a 10 mm path length quartz cell at 22° C. Following excitation at 265 nm with a XenoFlash (Photon Technology International, Inc.), Tb^3+ emission was monitored at 545 nm in a time series experiment in both H2O and D2O systems. Luminescence decay lifetime was obtained by fitting the acquired data with a mono-exponential decay function. H2O in CA1.CD2 solution was replaced with D2O by lypholization and re-dissolved in D2O at least three times. A standard curve correlating the Δkobs with water number under our experimental conditions was established by using well-characterized chelators, such as EDTA (q=3). DTPA (q=1), NTA (q=5), and Aquo Tb^3+ (q=9) solation with R^2=0.997.^26, 27 Water number coordinated to Tb^+-CA1.CD2 complex was then obtained by fitting the acquired Δkobs value to the standard curve.

DU-145 = experiment: Uptake and internalization by confocal fluorescent microscope; assay type: cell-based
Method: (§2) DU-145, PC-3 and H441 cells (8×10^4) were seeded in 4-well chambers (BD) at 37° C. overnight. In the second day, fresh medium was changed. Contrast agents were incubated with cells at different time point at 37° C. Subsequently, the cells were washed with PBS for three times and fixed with 3% formaldehyde for 15 minutes. After cells were rinsed in PBS for three times, 0.2% Triton X-100 was added to permeablize cells for 10 minutes. The cells were washed and four drops of Image-IT Fx signal enhancer (Invitrogen, CA) was applied in each sample to block unspecific binding. After three time washes, CD2 antibody was used as primary antibody. Goat anti-mouse IgG conjugated with Alexa Fluor 488 was used as detection antibody (Invitrogen, CA). The fluorescence image was acquired using 488 nm and UV lasers.

PC-3 = experiment: as above; assay type: cell-based
Method: as §2

[10] = Serum stability in human serum at 37° C., SDS-PAGE; assay type: in vitro ADME; details: 24 hours at 37° C., SDS Page
Method: Serum stability. […] The degradation of the protein (disappearance of 12 kDa protein band) was analyzed by SDS-PAGE and visualized by coomassie blue staining. In parallel, the degradation of the protein was also analyzed by immunoblot using antibodies OX54 or PabCD2. The identities of the 12 kDa bands as CA1.CD2 were always verified by immunobloting using antibody PabCD2.
[…] The degradation of the protein (disappearance of 12 kDa protein band) was analyzed by SDS-PAGE and visualized by coomassie blue staining for protein and idiol staining for PEG moiety. In parallel, the degradation of the protein was also analyzed by immunoblot using antibodies OX54 or PabCD2. The identities of CA1.CD2 and pegylated variants were verified by immunoblotting using antibody PabCD2.and idiol staining.

With O=C(O)CN(CCN(CC(=O)O)CC(=O)O)CCN(CC(=O)O)CC(=O)O [DTPA] as the molecule, how does the “Log (KGd/KZn)” value [1] read?
The value was 4.17.

And the “Log (KGd/KCa)” value [2]?
The value was 11.70.

What about the “Metal binding constant (Log Ka) Ca^2+” value [2] of the same molecule?
The value was 10.75.

What about the “Log (KGd/KMg)” value [3] of the same molecule?
The value was 4.25.

What about the relaxivity ([4]; clinically used DTPA, field not stated) of the same molecule?
The relaxivity was 5 mM⁻¹ s⁻¹.

What about the “water number q of standard chelators” value [5] of the same molecule?
Its value is 1.

Which “water number q of standard chelators” value [5] does the source give for O=C(O)CN(CCN(CC(=O)O)CC(=O)O)CC(=O)O [EDTA] here?
Its value is 3.

For O=C([O-])CN(CCN(CC(=O)[O-])CC(=O)O)CCN(CC(=O)[O-])CC(=O)O.[Gd+3] [Gd-DTPA, reference compound], which r1 ([6]; B0 1.5 T) is on record?
Its r1 is 5.4 mM⁻¹ s⁻¹.

And the r1 ([6]; B0 3 T)?
Its r1 is 4.2 mM⁻¹ s⁻¹.

What about the “contrast enhancement at the same concentration as Gd-CA1.CD2” value (CD-1 mice) of the same molecule?
The value was “failed to exhibit contrast enhancements”.

And the “contrast enhancement in T1 weighted imaging of samples” value [7]?
Its value is “did not lead to significant enhancement”.

With O=C(O)CN(CC(=O)O)CC(=O)O [NTA, nitrilotriacetic acid] as the molecule, how does the Kd [8] read?
Its Kd is 2.6 pM.

And the “water number q of standard chelators” value [5]?
Its value is 5.

With Albumin as the molecule, how does the r1 ([4]; B0 0.25 T) read?
Its r1 is 11.5 mM⁻¹ s⁻¹.

With Gadomer-17 as the molecule, how does the r1 ([4]; B0 1.5 T) read?
Its r1 is 13 mM⁻¹ s⁻¹.

With troponin C [reference compound] as the molecule, how does the “hydration number (water number in the coordination shell)” value [9] read?
The value was 1.8.

B1: CA1.CD2-521-Bom: Bom/GRP sequence grafted into CA1.CD2 (protein)
chain: RDSGTVWGALGHGIELNIPNFQMTDDIDEVRWERGSTLVAEFKRKMKPFLKSGGSGGGNQWAVGHLMGGSGGGAFEIDANGDLDIKNLTRDDSGTYNVTVYSTNGTRILNKALDLRILE
For B1, which “uptake in GRPR positive DU-145 cells” value (DU-145) is on record?
Its value is “uptake and internalization”.

What about the “uptake in GRPR positive PC-3 cells” value (PC-3) of the same molecule?
Its value is “uptake and internalization”.

B2: CA1.CD2-P40: CA1.CD2 PEGylated with PEG40 (conjugate)
chain: RDSGTVWGALGHGINLNIPNFQMTDDIDEVRWERGSTLVAEFKRKMKPFLKSGAFEILANGDLKIKNLTRDDSGTYNVTVYSTNGTRILNKALDLRILE
Which “stability in human serum” value [10] does the source give for B2 here?
The value was “remains intact”.
